# Literature values, collected in patent publication US20060083786A1 (Glenmark Pharmaceuticals Limited, priority 2004, published 2006).
# Conditions: in vivo
compound,measurement,value
O=C(O)COCCN1CCN([C@H](c2ccccc2)c2ccc(Cl)cc2)CC1 [Levocetirizine],side effects on the central nervous system,free from side effects
